Results reported in publication PMC10734772 (Turkish Journal of Chemistry, 2021).

melting point [°C]	SMILES
135	COc1ccc(CN2CCN(Cc3ccc(C(=O)Nc4ccc(C)c(Br)c4)cc3)CC2)c(OC)c1OC [Compound 4b, N-(3-Bromo-4-metylphenyl)-4-((4-(2,3,4-trimethoxybenzyl)piperazin-1-yl)methyl)benzamide]
105	Cc1ccc(NC(=O)c2ccc(CN3CCN(c4ncccn4)CC3)cc2)cc1Br [Compound 4a, N-(3-Bromo-4-methylphenyl)-4-((4-(pyrimidin-2-yl)piperazin-1-yl)methyl)benzamide]
116	Cc1ccc(NC(=O)c2ccc(CN3CCOCC3)cc2)cc1Br [Compound 4c, N-(3-Bromo-4-methylphenyl)-4-(morpholinomethyl)benzamide]
